Test results: PubChem BioAssay (NCI)
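Five concentrations, 48 hours, 96-well plates. Abbreviation: GI50, concentration required for 50% inhibition of growth. TGI: concentration producing complete growth inhibition.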

Columns and labels:
Assay in all cases: growth of human tumour cells (NCI), 48 h
A549 NSCLC = test system: A549 NSCLC
IGROV1 ovarian = test system: IGROV1 ovarian
CAKI-1 renal = test system: CAKI-1 renal
NCI-H522 lung = test system: NCI-H522 lung
NCI-H23 lung = test system: NCI-H23 lung
HCT-116 colon = test system: HCT-116 colon
UACC-257 melanoma = test system: UACC-257 melanoma
HL-60(TB) leukemia = test system: HL-60(TB) leukemia
DU-145 prostate = test system: DU-145 prostate
SF-539 CNS = test system: SF-539 CNS
K-562 leukemia = test system: K-562 leukemia
MDA-MB-435 = test system: MDA-MB-435
SK-MEL-28 melanoma = test system: SK-MEL-28 melanoma
PC-3 prostate = test system: PC-3 prostate
NCI-H460 lung = test system: NCI-H460 lung
SNB-19 CNS = test system: SNB-19 CNS
SF-268 CNS = test system: SF-268 CNS
SK-MEL-2 melanoma = test system: SK-MEL-2 melanoma
COLO 205 colon = test system: COLO 205 colon
A498 renal = test system: A498 renal
T-47D breast = test system: T-47D breast
HS 578T breast = test system: HS 578T breast
RPMI-8226 leukemia = test system: RPMI-8226 leukemia
MDA-MB-468 breast = test system: MDA-MB-468 breast
TK-10 renal = test system: TK-10 renal
HT29 colon = test system: HT29 colon
SK-MEL-5 melanoma = test system: SK-MEL-5 melanoma
UACC-62 melanoma = test system: UACC-62 melanoma
MOLT-4 leukemia = test system: MOLT-4 leukemia

CC(=O)Nc1cccc(Nc2nc(NCc3ccccc3)c3ccccc3n2)c1
GI50 (A549 NSCLC): 2.82 µM | TGI (A549 NSCLC): > 10 µM | GI50 (IGROV1 ovarian): 3.15 µM | TGI (IGROV1 ovarian): > 10 µM | GI50 (CAKI-1 renal): 1.82 µM | TGI (CAKI-1 renal): 4.4 µM | GI50 (NCI-H522 lung): 1.68 µM | TGI (NCI-H522 lung): 3.24 µM | GI50 (NCI-H23 lung): 2.5 µM | TGI (NCI-H23 lung): 9.11 µM | GI50 (HCT-116 colon): 1.66 µM | TGI (HCT-116 colon): 3.16 µM | GI50 (UACC-257 melanoma): 1.86 µM | TGI (UACC-257 melanoma): 3.74 µM | GI50 (HL-60(TB) leukemia): 3.58 µM | TGI (HL-60(TB) leukemia): > 10 µM | GI50 (DU-145 prostate): 5.41 µM | TGI (DU-145 prostate): > 10 µM | GI50 (SF-539 CNS): 1.74 µM | TGI (SF-539 CNS): 3.15 µM | GI50 (K-562 leukemia): 3.25 µM | TGI (K-562 leukemia): > 10 µM | GI50 (MDA-MB-435): 1.7 µM | TGI (MDA-MB-435): 3.26 µM | GI50 (SK-MEL-28 melanoma): 1.61 µM | TGI (SK-MEL-28 melanoma): 3.02 µM | GI50 (PC-3 prostate): 2.32 µM | TGI (PC-3 prostate): 8.15 µM | GI50 (NCI-H460 lung): 1.68 µM | TGI (NCI-H460 lung): 3.3 µM | GI50 (SNB-19 CNS): 2.49 µM | TGI (SNB-19 CNS): 9.38 µM | GI50 (SF-268 CNS): > 10 µM | TGI (SF-268 CNS): > 10 µM | GI50 (SK-MEL-2 melanoma): 3.41 µM | TGI (SK-MEL-2 melanoma): > 10 µM | GI50 (COLO 205 colon): 1.9 µM | TGI (COLO 205 colon): 3.53 µM | GI50 (A498 renal): > 10 µM | TGI (A498 renal): > 10 µM | GI50 (T-47D breast): 1.65 µM | TGI (T-47D breast): 3.81 µM | GI50 (HS 578T breast): 2.16 µM | TGI (HS 578T breast): 5.96 µM | GI50 (RPMI-8226 leukemia): 3.24 µM | TGI (RPMI-8226 leukemia): > 10 µM | GI50 (MDA-MB-468 breast): 1.54 µM | TGI (MDA-MB-468 breast): 3.01 µM | GI50 (TK-10 renal): 3.12 µM | TGI (TK-10 renal): > 10 µM | GI50 (HT29 colon): 1.84 µM | TGI (HT29 colon): 3.82 µM | GI50 (SK-MEL-5 melanoma): 1.47 µM | TGI (SK-MEL-5 melanoma): 3.12 µM | GI50 (UACC-62 melanoma): 1.42 µM | TGI (UACC-62 melanoma): 2.74 µM | GI50 (MOLT-4 leukemia): 3.08 µM | TGI (MOLT-4 leukemia): > 10 µM
